Reference: patent US8106055B2, “Substituted amide compounds” (Gruenenthal GmbH, priority 2007, dated 2012)

Tests used:
[1] = target: T1, human μ opiate receptor (Homo sapiens, UniProt P35372); assay: Affinity for the human μ opiate receptor ([3H]-naloxone displacement, CHO-K1 receptor membrane preparation, SPA); type: binding; details: test concentration of 1 μM
T1 construct: purchased PerkinElmer Life Sciences, Zaventem, Belgium RB-HOM; host or cells: CHO-K1 cells (membrane preparation)
Outline: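 Displacement of 1 nmol/l [3H]-naloxone measured by SPA counting after 90 min at room temperature, using human μ receptor CHO-K1 membrane preparation in Tris-HCl buffer with 0.06% BSA. Test substances at 1 μmol/l give % inhibition; dilution series yield IC50, then Ki (Cheng-Prusoff); non-specific binding with 100 μmol/l naloxone.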

[2] = target: T2, bradykinin 1 receptor (B1R) of the rat (Rattus norvegicus, UniProt P97583); assay: Functional investigation on the rat bradykinin 1 receptor (B1R), Ca2+ FLIPR assay in CHO K1 rB1R cells; type: cell-based; details: B1R antagonism rat; test substance 10 μM; Ca2+ FLIPR, CHO K1 rB1R cells
T2 construct: expressed in transfected cells; host or cells: CHO K1 cells
T2 sequence (P97583 1-337): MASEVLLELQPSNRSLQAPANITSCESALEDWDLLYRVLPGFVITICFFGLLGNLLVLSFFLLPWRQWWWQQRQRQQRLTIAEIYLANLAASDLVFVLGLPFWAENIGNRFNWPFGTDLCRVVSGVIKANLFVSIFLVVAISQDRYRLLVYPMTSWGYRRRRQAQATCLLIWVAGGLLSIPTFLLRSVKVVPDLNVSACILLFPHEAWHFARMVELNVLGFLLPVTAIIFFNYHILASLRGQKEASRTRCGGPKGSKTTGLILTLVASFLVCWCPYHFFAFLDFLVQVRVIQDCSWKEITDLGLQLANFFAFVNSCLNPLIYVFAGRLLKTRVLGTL
Outline: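 Fluo-4 Ca2+ readout, peak fluorescence. Stable CHO K1 transfectants; compound pre-incubated 10-20 min, then EC80 agonist—Lys-Des-Arg9-BK for hB1R, Des-Arg9-BK for rB1R. % inhibition vs maximal inhibition; IC50 from multiple concentrations, duplicate/triplicate, ≥2 independent runs.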

T1 sequence (P35372 whole entry): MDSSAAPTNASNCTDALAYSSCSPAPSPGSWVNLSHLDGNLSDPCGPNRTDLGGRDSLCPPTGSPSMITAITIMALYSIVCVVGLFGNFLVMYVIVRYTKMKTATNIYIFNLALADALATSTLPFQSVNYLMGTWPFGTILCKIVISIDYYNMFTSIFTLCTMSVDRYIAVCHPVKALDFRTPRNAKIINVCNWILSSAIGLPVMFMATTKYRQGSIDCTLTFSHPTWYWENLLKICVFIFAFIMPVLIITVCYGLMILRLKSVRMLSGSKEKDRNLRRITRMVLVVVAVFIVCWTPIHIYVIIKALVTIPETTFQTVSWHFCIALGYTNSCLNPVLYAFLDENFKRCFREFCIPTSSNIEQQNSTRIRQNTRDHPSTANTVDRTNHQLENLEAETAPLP

Structure (SMILES) | μ (binding on the μ opioid receptor, % inhibition) [1] [%] | B1R Ant. r [10 μM] % Inhibition [2] [%]
COc1ccc(S(=O)(=O)N(C)CCOCC(=O)NCC2CCC(C(c3ccc(F)cc3)N(C)C)CC2)cc1OC (stereo not shown) [Example 514] | 27 | 22
COc1ccc(S(=O)(=O)N2CCCCC2COCC(=O)NC2CCC(C(c3ccc(F)cc3)N(C)C)CC2)cc1 (stereo not shown) [Example 450] | 50 | 52
CN(C)C(CCc1ccccc1)C1CCC(CNC(=O)COC2CCCCC2N(C)S(=O)(=O)c2ccc(Cl)c(Cl)c2)CC1 (stereo not shown) [Example 451] | 48 | 11
CN(C)C(c1ccc(F)cc1)C1CCC(CCNC(=O)COC2CCN(S(=O)(=O)c3ccc(F)cc3)C2)CC1 (stereo not shown) [Example 518] | 35 | 26
CCN(CCOCC(=O)NCC1CCC(C(CCc2ccccc2)N(C)C)CC1)S(=O)(=O)c1c(C)cc(OC)c(C)c1C (stereo not shown) [Example 536] | 43 | 95
COc1ccc(S(=O)(=O)N2CCCCC2COCC(=O)NCC2CCC(C(CCc3ccccc3)N(C)C)CC2)cc1 (stereo not shown) [Example 469] | 50 | 87
CN(C)C(c1ccc(F)cc1)C1CCC(NC(=O)COC2CCN(S(=O)(=O)c3ccccc3)C2)CC1 (stereo not shown) [Example 463] | 38 | 17
COc1cc(C)c(S(=O)(=O)N2CCC(OCC(=O)NCCC3CCC(C(c4ccc(F)cc4)N(C)C)CC3)C2)c(C)c1C (stereo not shown) [Example 467] | 40 | 47
CN(C)C(c1cccc(F)c1)C1CCC(CNC(=O)COC2CCN(S(=O)(=O)c3ccccc3)CC2)CC1 (stereo not shown) [Example 477] | 51 | 17
COc1ccc(S(=O)(=O)N2CCCC2COCC(=O)NC2CCC(C(c3ccc(F)cc3)N(C)C)CC2)cc1 (stereo not shown) [Example 461] | 43 | 20
CN(C)C(c1ccc(F)cc1)C1CCC(CCNC(=O)COCCN(Cc2ccccc2)S(=O)(=O)c2ccccc2)CC1 (stereo not shown) [Example 489] | 35 | 22
COc1ccc(S(=O)(=O)N(C)CCOCC(=O)NCC2CCC(C(c3ccc(F)cc3)N(C)C)CC2)cc1 (stereo not shown) [Example 508] | 31 | 42
Cc1ccc(S(=O)(=O)N2CCC(OCC(=O)NCC3CCC(C(CCc4ccccc4)N(C)C)CC3)C2)cc1 (stereo not shown) [Example 538] | 25 | 5
COc1cc(C)c(S(=O)(=O)N2CCC(OCC(=O)NCC3CCC(C(CCc4ccccc4)N(C)C)CC3)C2)c(C)c1C (stereo not shown) [Example 503] | 37 | 37
CN(C)C(c1ccc(F)cc1)C1CCC(NC(=O)COCCN2CCN(S(=O)(=O)c3ccccc3)CC2)CC1 (stereo not shown) [Example 502] | 33 | 21
COc1cc(C)c(S(=O)(=O)N2CCC(CCOCC(=O)NCC3CCC(C(CCc4ccccc4)N(C)C)CC3)CC2)c(C)c1C (stereo not shown) [Example 521] | 39 | 11
COc1cc(C)c(S(=O)(=O)N2CCC(CCOCC(=O)NCC3CCC(C(c4ccc(Cl)cc4)N(C)C)CC3)CC2)c(C)c1C (stereo not shown) [Example 499] | 37 | −10
COc1ccc(S(=O)(=O)N2CCCCC2CCOCC(=O)NCC2CCC(C(CCc3ccccc3)N(C)C)CC2)cc1 (stereo not shown) [Example 535] | 34 | 72
CN(C)C(CCc1ccccc1)C1CCC(CNC(=O)COCCN(C)S(=O)(=O)c2c(Cl)cc(Cl)cc2Cl)CC1 (stereo not shown) [Example 515] | 42 | 54

Structure (SMILES) | μ (binding on the μ opioid receptor, % inhibition) [1] [%] | B1R Ant. r [10 μM] % Inhibition [2] [%]
Cc1cc(C)c(S(=O)(=O)N2CCC(OCC(=O)NCC3CCC(C(CCc4ccccc4)N(C)C)CC3)C2)c(C)c1 (stereo not shown) [Example 475] | 48 | 40
Cc1ccc(S(=O)(=O)N(C)CCOCC(=O)NCC2CCC(C(CCc3ccccc3)N(C)C)CC2)cc1 (stereo not shown) [Example 452] | 46 | 18
COc1cc(C)c(S(=O)(=O)N(CCOCC(=O)NCC2CCC(C(c3ccc(Cl)cc3)N(C)C)CC2)Cc2ccccc2)c(C)c1 (stereo not shown) [Example 473] | 34 | −3
CN(C)C(c1ccc(F)cc1)C1CCC(CCNC(=O)COC2CCN(S(=O)(=O)c3ccc(Cl)cc3)C2)CC1 (stereo not shown) [Example 464] | 46 | −6
CN(C)C(c1ccccc1)C1CCC(CNC(=O)COCCC2CCN(S(=O)(=O)c3ccccc3)CC2)CC1 (stereo not shown) [Example 507] | 32 | 3
Cc1ccc(S(=O)(=O)N2CCC(OCC(=O)NCCC3CCC(C(c4ccc(F)cc4)N(C)C)CC3)C2)cc1 (stereo not shown) [Example 491] | 34 | 16
COc1cc(C)c(S(=O)(=O)N2CCC(OCC(=O)NCCC3CCC(C(c4ccc(F)cc4)N(C)C)CC3)C2)c(C)c1 (stereo not shown) [Example 509] | 43 | 94
Cc1cc(C)c(S(=O)(=O)N2CCC(OCC(=O)NCCC3CCC(C(c4ccc(Cl)cc4)N(C)C)CC3)C2)c(C)c1 (stereo not shown) [Example 506] | 42 | 23
Cc1ccc(S(=O)(=O)N(C)CCOCC(=O)NCCC2CCC(C(c3ccc(F)cc3)N(C)C)CC2)cc1 (stereo not shown) [Example 457] | 47 | 11
CN(C)C(c1ccc(Cl)cc1)C1CCC(CNC(=O)COC2CCN(S(=O)(=O)c3ccccc3)CC2)CC1 (stereo not shown) [Example 471] | 35 | 15
CN(C)C(c1ccc(F)cc1)C1CCC(CCNC(=O)COC2CCN(S(=O)(=O)c3ccc(Cl)cc3Cl)C2)CC1 (stereo not shown) [Example 456] | 50 | 48
CN(C)C(c1ccc(F)cc1)C1CCC(NC(=O)COCC2CCCN(S(=O)(=O)c3ccccc3)C2)CC1 (stereo not shown) [Example 478] | 40 | 23
COc1cc(C)c(S(=O)(=O)N2CCCC(OCC(=O)NCCC3CCC(C(c4ccc(Cl)cc4)N(C)C)CC3)C2)c(C)c1C (stereo not shown) [Example 485] | 46 | 6
COc1cc(C)c(S(=O)(=O)N(CCOCC(=O)NCC2CCC(C(c3ccc(F)cc3)N(C)C)CC2)Cc2ccccc2)c(C)c1 (stereo not shown) [Example 494] | 42 | 36
COc1ccc(S(=O)(=O)N2CCCCC2COCC(=O)NCCC2CCC(C(c3ccc(Cl)cc3)N(C)C)CC2)cc1OC (stereo not shown) [Example 540] | 23 | 19
COc1ccc(S(=O)(=O)N(C)CCOCC(=O)NCCC2CCC(C(c3ccc(Cl)cc3)N(C)C)CC2)cc1 (stereo not shown) [Example 460] | 52 | 71
CN(C)C(c1ccc(Cl)cc1)C1CCC(CCNC(=O)COCCC2CCN(S(=O)(=O)c3ccccc3)CC2)CC1 (stereo not shown) [Example 531] | 23 | −1
CN(C)C(CCc1ccccc1)C1CCC(CNC(=O)COCCN2CCN(S(=O)(=O)c3ccccc3)CC2)CC1 (stereo not shown) [Example 526] | 32 | −30
COc1cc(C)c(S(=O)(=O)N2CCC(OCC(=O)NCCC3CCC(C(c4ccc(F)cc4)N(C)C)CC3)CC2)c(C)c1C (stereo not shown) [Example 480] | 38 | 4
